Test results as given in ChEMBL document CHEMBL4376876 (J Med Chem, 2020).

What follows are compounds tested against Enoyl-[acyl-carrier-protein] reductase [NADH] (Mycobacterium tuberculosis, UniProt P9WGR1, S94A).

Question: Which IC50 does the source give for `CC(C)[C@H]1OC(=O)[C@H](C)[C@H](O)[C@H](Cc2cccnc2)NC(=O)[C@@H](NC(=O)c2ncccc2O)[C@@H](C)OC1=O` here?
Answer: 32.8 µM

Question: For `CC[C@H]1OC(=O)[C@H](C)[C@H](O)[C@H](Cc2cccnc2)NC(=O)[C@@H](NC(=O)c2ncccc2O)[C@@H](C)OC1=O`, which IC50 is on record?
Answer: 127 µM

Question: `CC[C@@H](C)[C@H]1OC(=O)[C@H](C)[C@H](O)[C@H](Cc2cccnc2)NC(=O)[C@@H](NC(=O)c2ncccc2O)[C@@H](C)OC1=O` was tested. Which IC50 did it give?
Answer: 31.5 µM

Question: `C[C@@H]1C(=O)N[C@H](C2CCCCC2)C(=O)O[C@H](C)[C@H](NC(=O)c2ncccc2O)C(=O)N[C@@H](Cc2cccnc2)[C@@H]1O` was tested. Which IC50 did it give?
Answer: 291 µM

Question: `C[C@H]1OC(=O)[C@@H](Cc2ccccc2)OC(=O)[C@H](C)[C@H](O)[C@H](Cc2cccnc2)NC(=O)[C@H]1NC(=O)c1ncccc1O` was tested. Which IC50 did it give?
Answer: 29.1 µM

Question: For `CC[C@H](C)[C@H]1OC(=O)[C@H](C)[C@H](O)[C@H](Cc2cccnc2)NC(=O)[C@@H](NC(=O)c2ncccc2O)[C@@H](C)OC1=O`, which IC50 is on record?
Answer: 87.2 µM
